Source: PMC2855385 (Biochimica et biophysica acta, 2009)
Where two headings read alike, the source gives them in different places.

Key:
[1] = biological target: T1, E. coli peptide deformylase (PDFEc) (Escherichia coli, UniProt P0A6K3); type: biochemical; details: for Initial rate: AMT 500 µM; for remaining activity at 500 µM: read-out: % of control, AMT 500 µM
[2] = biological target: T1, E. coli peptide deformylase (PDFEc); test: Slow-binding inhibition of PDFEc, kobs as a function of inhibitor concentration; type: biochemical
[3] = solvent dimethylformamide, 1 week post
[4] = solvent ethanol, more than 2 days incubation

T1 sequence (P0A6K3 whole entry): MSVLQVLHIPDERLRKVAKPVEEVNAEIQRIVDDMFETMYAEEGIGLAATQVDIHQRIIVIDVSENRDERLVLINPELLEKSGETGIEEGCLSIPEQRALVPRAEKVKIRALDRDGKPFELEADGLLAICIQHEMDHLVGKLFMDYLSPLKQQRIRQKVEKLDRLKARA

Nc1nnc(S)s1 [AMT, 2-amino-5-mercapto-1,3,4-thiadiazole]
initial rate of the enzyme catalyzed reaction versus control ([1]; 500 µM AMT incubated in DMF for 30 min): barely lower than that of the control
Initial rate ([1]; solvent acetonitrile, more than 2 days incubation): 16.3 mOD min^−1
Initial rate [1, 3]: 7.9 mOD min^−1
Initial rate ([1]; solvent dimethylformamide, tested immediately): 17.0 mOD min^−1
Initial rate ([1]; solvent dimethylsulfoxide, more than 2 days incubation): 15.9 mOD min^−1
Initial rate [1, 4]: 16.9 mOD min^−1
inhibitory effect on PDFEc ([1]; AMT freshly prepared in DMF, or dissolved in any other solvent and aged at 25 °C for any length of time): No inhibitory effect
inhibition of PDFEc ([1]; AMT incubated with 0.06% H2O2 in buffer): no inhibition
remaining activity at 500 µM [1, 3]: 47%
remaining activity at 500 µM [1, 4]: 100%
enhancement of apparent binding affinity by the slow-binding step (Ki / Ki^*) [2]: about 30 fold
